The source of these data is PubChem BioAssay AID184 (DTP/NCI, 2004).

Several values for one entry are separate records, joined by “and”; a condition that tells them apart may be missing. Identical values can stand only once. Inconclusive results and toxic doses are left out.

This assay concerns BALB/cJ mice, ADJ-PC-6 ip tumor, median survival T/C. The assay can be described thus: NCI In Vivo Anticancer Drug Screen. Data for tumor model ADJ-PC-6 (intraperitoneal) in BALB/cJ mice. As to conditions: endpoint: median survival time, higher = longer survival. As for the experimental part: The antitumor activity of compounds was measured in mice bearing transplantable tumors. Survival or tumor size were measured and the results are expressed as the measurement made in the treated group (T) divided by the measurement made in the vehicle treated control group (C). The tumor model used in this assay is ADJ-PC-6 (intraperitoneal) in BALB/cJ mice

Setting [1] is: dose: 5.0 mg/kg/injection, schedule: Q04DX003 (ip), vehicle: saline.
Where [2] appears, read: dose: 10.0 mg/kg/injection, schedule: Q04DX003 (ip), vehicle: saline.
[3] abbreviates: dose: 50.0 mg/kg/injection, schedule: Q04DX003 (ip), vehicle: alkali diluted with saline.
Setting [4] is: dose: 100.0 mg/kg/injection, schedule: Q04DX003 (ip), vehicle: alkali diluted with saline.

With `CC1(CO)C(O)CCC2(C)C1CCC1CC3CC12CCC3(O)CO` (configuration not stated), the T/C was 92 % of control and 120 % of control (dose: 37.5 mg/kg/injection, schedule: Q04DX003 (ip), vehicle: Klucel (hydroxypropylcellulose) (HPC)); 115 % of control and 118 % of control (dose: 75.0 mg/kg/injection, schedule: Q04DX003 (ip), vehicle: Klucel (hydroxypropylcellulose) (HPC)); 100 % of control and 109 % of control (dose: 150.0 mg/kg/injection, schedule: Q04DX003 (ip), vehicle: Klucel (hydroxypropylcellulose) (HPC)); 106 % of control (dose: 600.0 mg/kg/injection, schedule: Q04DX003 (ip), vehicle: Klucel (hydroxypropylcellulose) (HPC)).
Consider `COc1cccc2c1C(=O)c1c(O)c3c(c(O)c1C2=O)C[C@@](O)(C(=O)CO)C[C@@H]3OC1CC(N)C(O)C(C)O1` (some centres not stated), for which the T/C was 103 % of control (dose: 0.5 mg/kg/injection, schedule: Q04DX003 (iv), vehicle: saline); 92 % of control (dose: 1.0 mg/kg/injection, schedule: Q04DX003 (iv), vehicle: saline); 97 % of control (dose: 2.0 mg/kg/injection, schedule: Q04DX003 (iv), vehicle: saline); 95 % of control (dose: 4.0 mg/kg/injection, schedule: Q04DX003 (iv), vehicle: saline); 168 % of control and 225 % of control (dose: 8.0 mg/kg/injection, schedule: Q04DX003 (iv), vehicle: saline).
On to `CCN(CC)CCNc1ccc(C)c2sc3ccccc3c(=O)c12`, for which the T/C was 103 % of control (dose: 12.5 mg/kg/injection, schedule: Q04DX003 (ip), vehicle: water); 113 % of control (dose: 50.0 mg/kg/injection, schedule: Q04DX003 (ip), vehicle: water); 91 % of control (dose: 100.0 mg/kg/injection, schedule: Q04DX003 (ip), vehicle: water).
On to `N[C@@H](Cc1ccc(N(CCCl)CCCl)cc1)C(=O)O`, for which the T/C was 177 % of control (dose: 2.0 mg/kg/injection, schedule: Q04DX003 (ip), vehicle: saline); 203 % of control (dose: 2.5 mg/kg/injection, schedule: Q04DX003 (ip), vehicle: saline); 236 % of control (dose: 4.0 mg/kg/injection, schedule: Q04DX003 (ip), vehicle: saline); 240 % of control under setting [1]; 230 % of control (dose: 8.0 mg/kg/injection, schedule: Q04DX003 (ip), vehicle: saline); 335 % of control under setting [2]. In addition, the T/C (dose: 16.0 mg/kg/injection, schedule: Q04DX003 (ip), vehicle: saline) is 307 % of control.
Take `O=c1[nH]cc(F)c(=O)[nH]1`: the T/C is, setting by setting: (dose: 7.5 mg/kg/injection, schedule: Q04DX003 (ip), vehicle: saline) 150 % of control and 471 % of control; (dose: 15.0 mg/kg/injection, schedule: Q04DX003 (ip), vehicle: saline) 173 % of control and 308 % of control; (dose: 30.0 mg/kg/injection, schedule: Q04DX003 (ip), vehicle: saline) 150 % of control and 273 % of control and 471 % of control; (dose: 60.0 mg/kg/injection, schedule: Q04DX003 (ip), vehicle: saline) 193 % of control and 335 % of control and 471 % of control.
Regarding `N[C@H](C(=O)O)[C@@H]1CC(Cl)=NO1`, the T/C (dose: 1.0 mg/kg/injection, schedule: Q01DX009 (ip), vehicle: saline) was 121 % of control.
For the molecule `NC(C/[N+]([O-])=N/O)C(=O)O` (configuration not stated), the T/C is 108 % of control under setting [3]; 115 % of control under setting [4]; 153 % of control (dose: 250.0 mg/kg/injection, schedule: Q04DX003 (ip), vehicle: alkali diluted with saline); 171 % of control (dose: 400.0 mg/kg/injection, schedule: Q04DX003 (ip), vehicle: alkali diluted with saline); 188 % of control (dose: 500.0 mg/kg/injection, schedule: Q04DX003 (ip), vehicle: alkali diluted with saline); 167 % of control (dose: 800.0 mg/kg/injection, schedule: Q04DX003 (ip), vehicle: alkali diluted with saline).
For the molecule `CC(=O)O[C@H]1C(=O)[C@@]2(C)[C@H]([C@H](OC(=O)c3ccccc3)[C@]3(O)C[C@H](OC(=O)[C@H](O)[C@@H](NC(=O)c4ccccc4)c4ccccc4)C(C)=C1C3(C)C)[C@]1(OC(C)=O)CO[C@@H]1C[C@@H]2O`, the T/C reads like this: (dose: 0.75 mg/kg/injection, schedule: Q01DX009 (ip), vehicle: Klucel (hydroxypropylcellulose) (HPC)) 102 % of control; (dose: 1.56 mg/kg/injection, schedule: Q01DX009 (ip), vehicle: Klucel (hydroxypropylcellulose) (HPC)) 118 % of control; (dose: 3.0 mg/kg/injection, schedule: Q01DX009 (ip), vehicle: Klucel (hydroxypropylcellulose) (HPC)) 112 % of control; (dose: 3.12 mg/kg/injection, schedule: Q01DX009 (ip), vehicle: Klucel (hydroxypropylcellulose) (HPC)) 112 % of control; (dose: 6.0 mg/kg/injection, schedule: Q01DX009 (ip), vehicle: Klucel (hydroxypropylcellulose) (HPC)) 121 % of control; (dose: 12.0 mg/kg/injection, schedule: Q01DX009 (ip), vehicle: Klucel (hydroxypropylcellulose) (HPC)) 124 % of control.
Turning to `S=c1nc[nH]c2nc[nH]c12`, the T/C reads like this: (dose: 10.0 mg/kg/injection, schedule: Q04DX003 (ip), vehicle: alkali diluted with saline) 335 % of control; (dose: 20.0 mg/kg/injection, schedule: Q04DX003 (ip), vehicle: alkali diluted with saline) 335 % of control; (dose: 25.0 mg/kg/injection, schedule: Q04DX003 (ip), vehicle: alkali diluted with saline) 471 % of control; (dose: 40.0 mg/kg/injection, schedule: Q04DX003 (ip), vehicle: alkali diluted with saline) 335 % of control; under setting [3], 471 % of control; (dose: 80.0 mg/kg/injection, schedule: Q04DX003 (ip), vehicle: alkali diluted with saline) 335 % of control. Besides, the T/C by setting is: under setting [4], 178 % of control and 471 % of control; (dose: 100.0 mg/kg/injection, schedule: Q04DX003 (ip), vehicle: alkali diluted with water) 275 % of control and 283 % of control; (dose: 160.0 mg/kg/injection, schedule: Q04DX003 (ip), vehicle: alkali diluted with saline) 335 % of control; (dose: 200.0 mg/kg/injection, schedule: Q04DX003 (ip), vehicle: alkali diluted with saline) 93 % of control; (dose: 200.0 mg/kg/injection, schedule: Q04DX003 (ip), vehicle: alkali diluted with water) 275 % of control and 369 % of control.
Turning to `CO[C@H]1C[C@@H]2CC[C@@H](C)[C@@](O)(O2)C(=O)C(=O)N2CCCC[C@H]2C(=O)O[C@H]([C@H](C)C[C@@H]2CC[C@@H](O)[C@H](OC)C2)CC(=O)[C@H](C)C=C(C)[C@@H](O)[C@@H](OC)C(=O)[C@H](C)C[C@H](C)/C=C/C=C/C=C1C`, the T/C is 113 % of control and 114 % of control (dose: 7.5 mg/kg/injection, schedule: Q01DX009 (ip), vehicle: saline with Tween-80); 116 % of control (dose: 15.0 mg/kg/injection, schedule: Q01DX009 (ip), vehicle: saline with Tween-80); 87 % of control (dose: 25.0 mg/kg/injection, schedule: Q01DX009 (ip), vehicle: saline); 114 % of control and 118 % of control (dose: 30.0 mg/kg/injection, schedule: Q01DX009 (ip), vehicle: saline with Tween-80); 98 % of control (dose: 50.0 mg/kg/injection, schedule: Q01DX009 (ip), vehicle: saline); 95 % of control and 110 % of control (dose: 60.0 mg/kg/injection, schedule: Q01DX009 (ip), vehicle: saline with Tween-80). In addition, the T/C is, setting by setting: (dose: 100.0 mg/kg/injection, schedule: Q01DX009 (ip), vehicle: saline) 87 % of control; (dose: 120.0 mg/kg/injection, schedule: Q01DX009 (ip), vehicle: saline with Tween-80) 87 % of control; (dose: 200.0 mg/kg/injection, schedule: Q01DX009 (ip), vehicle: saline) 93 % of control.
Consider `COc1cc([C@@H]2c3cc4c(cc3[C@@H](OC3OC5CO[C@@H](c6cccs6)OC5C(O)C3O)[C@H]3COC(=O)[C@H]23)OCO4)cc(OC)c1O` (some centres not stated), for which the T/C is 185 % of control under setting [1]; 151 % of control and 207 % of control under setting [2]; 264 % of control and 301 % of control (dose: 20.0 mg/kg/injection, schedule: Q04DX003 (ip), vehicle: saline); 269 % of control and 355 % of control (dose: 40.0 mg/kg/injection, schedule: Q04DX003 (ip), vehicle: saline); 337 % of control and 355 % of control (dose: 80.0 mg/kg/injection, schedule: Q04DX003 (ip), vehicle: saline); 337 % of control (dose: 160.0 mg/kg/injection, schedule: Q04DX003 (ip), vehicle: saline).
